Experimental data as given in the supplement of paper PMC11451515.

Key:
Assay in all cases: AUC of viability dose-response curve (% viability x log10 dose units); higher = less sensitive
Settings in all cases: 48 h
[1] = tested on: SEM cells
Procedure, shortened: (§1)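 Leukemia cells adapted to each medium (500 or 1000 cells/well, 1536-well plates) were exposed to library compounds in DMSO for 48 h at 37°C at 11 threefold doses, 47 μM to 0.79 nM. Luminescence by CellTiter-Glo One was normalised per plate to DMSO and cell-free wells, then fitted with a four-parameter log-logistic curve on log10 dose. Curves above full viability were scaled and quality-control failures removed before area under the curve was integrated by trapezoidal rule.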

[2] = tested on: NOMO1
Procedure, shortened: as §1

[3] = tested on: P12-Ichikawa
Procedure, shortened: as §1

[4] = RPMI 5 mM glucose + 10% dialyzed FBS

Row | SMILES | AUC of viability dose-response curve ([1]; HPLM + 10% dialyzed FBS) | AUC of viability dose-response curve ([1]; RPMI 5 mM glucose + 10% FBS) | AUC of viability dose-response curve [1, 4] | AUC of viability dose-response curve ([2]; HPLM + 10% dialyzed FBS) | AUC of viability dose-response curve ([2]; RPMI 5 mM glucose + 10% FBS) | AUC of viability dose-response curve [2, 4] | AUC of viability dose-response curve ([3]; HPLM + 10% dialyzed FBS) | AUC of viability dose-response curve ([3]; RPMI 5 mM glucose + 10% FBS) | AUC of viability dose-response curve [3, 4]
1 | COc1ccc(CCC(=O)c2c(O)cc(O[C@@H]3O[C@H](CO)[C@@H](O)[C@H](O)[C@H]3O[C@@H]3O[C@@H](C)[C@H](O)[C@@H](O)[C@H]3O)cc2O)cc1O | 464 | 455 | 465 | 413 | 426 | 425 | 458 | 442 | 463
2 | Cc1ccc(Nc2cc(-c3cccc(N4C(=O)c5ccccc5C4=O)c3)ncn2)cc1N[S+](C)(=O)[O-] | 468 | 463 | 468 | 461 | 473 | 469 | 466 | 465 | 474
3 | CNC[C@H](O)[C@@H](O)[C@H](O)[C@H](O)CO |  |  |  | 432 | 473 | 470 | 471 | 471 | 474
4 | Oc1cc(-c2nc(-c3ccccc3)[nH]c2-c2ccncc2)ccc1Cl | 464 | 461 | 467 | 394 | 451 | 420 | 438 | 424 | 419
5 | Cc1ccc2nc(NCCN)c3ncc(C)n3c2c1 | 413 | 440 | 430 | 446 | 422 | 437 | 458 | 455 | 460
6 | C[S+](=O)([O-])Oc1ccc2c(NC(N)=O)c(C(=O)c3ccc(Cl)cc3Cl)oc2c1 | 433 | 442 | 464 | 449 | 460 | 462 | 455 | 463 | 466
7 | OC1=CC=C(C=C1)C/2=C/C3=C(OC2)C=C(O)C=C3 | 355 | 358 | 362 | 368 | 411 | 418 | 354 | 356 | 349
8 | CCCCCNC(=N)N/N=C/c1c[nH]c2ccc(OC)cc12 | 426 | 424 | 428 | 440 | 442 | 441 | 429 | 429 | 436
9 | OC[C@H]1O[C@H](C[C@@H]1O)N2/C=C(C(=O)NC2=O)/C(F)(F)F | 317 | 407 | 350 | 356 | 449 | 391 | 317 | 375 | 371
10 | COC1=CC=C(C=C1)/C2=C(O)/C(=O)C3=C(O)C=C(O)C(=C3O2)CC=C(C)C | 457 | 434 | 467 | 464 | 454 | 464 | 467 | 473 | 468
11 | CCCN[C@H]1CCc2nc(N)sc2C1 | 453 | 442 | 442 | 447 | 434 | 466 | 462 | 430 | 450
12 | CC[C@H]1OC(=O)[C@H](C)[C@@H](O[C@H]2C[C@@](C)(OC)[C@@H](O)[C@H](C)O2)[C@H](C)[C@@H](O[C@@H]2O[C@H](C)C[C@H](N(C)C)[C@H]2O)[C@](C)(OC)C[C@@H](C)C(=O)[C@H](C)[C@@H](O)[C@]1(C)O | 452 | 461 | 452 | 405 | 440 | 409 | 435 | 443 | 437
13 | C[C@H](NC(=O)Cc1cc(F)cc(F)c1)C(=O)N[C@H](C(=O)OC(C)(C)C)c1ccccc1 | 418 | 456 | 415 | 448 | 397 | 432 | 432 | 428 | 390
14 | CC(=O)OC[C@@H]1O[C@H]([C@H](OC(C)=O)[C@@H]1OC(C)=O)N2\C=C/C(=O)NC2=O | 448 | 462 | 456 | 429 | 440 | 443 | 461 | 444 | 457
15 | Oc1ccc(OCc2ccccc2)cc1 |  |  |  | 441 | 444 | 457 | 435 | 420 | 407
16 | CCCCCCNC(=O)N1\C=C(F)/C(=O)NC1=O | 466 | 458 | 435 | 451 | 468 | 443 | 458 | 459 | 456
17 | NC(=O)c1cccc(-c2cc(Nc3ccc(OC(F)(F)F)cc3)ncn2)c1 | 441 | 464 | 423 | 457 | 436 | 428 | 469 | 466 | 460
18 | CN1CCc2c(c3ccccc3n2Cc2ccc(C(=O)NO)cc2)C1 | 348 | 364 | 310 | 373 | 358 | 397 | 401 | 370 | 377
19 | COc1c(Cl)cc2c([nH]c3cnccc32)c1NC(=O)c1cccnc1C | 469 | 405 | 465 | 464 | 473 | 471 | 462 | 468 | 454
20 | Cc1c(N)nc([C@H](CC(N)=O)NC[C@@H](N)C(N)=O)nc1C(=O)N[C@H](C(=O)N[C@@H](C)[C@H](O)[C@@H](C)C(=O)N[C@@H](C(=O)NCCc1nc(-c2nc(C(=O)NCCC[S+](C)C)cs2)cs1)[C@@H](C)O)C(O[C@H]1O[C@H](CO)[C@H](O)[C@@H](O)[C@H]1O[C@H]1O[C@H](CO)[C@@H](O)[C@H](OC(N)=O)[C@@H]1O)c1c[nH]cn1 (some centres not stated) | 415 | 382 | 384 | 394 | 416 | 434 | 411 | 378 | 424
21 | COc1ccccc1[C@H](c1cccc2ccccc12)[C@@](C)(C#N)C(=O)N1CCC(c2cccc(C(F)(F)F)c2)CC1 | 435 | 456 | 434 | 431 | 458 | 427 | 450 | 425 | 432
22 | Cc1cc(Nc2ncc3c(n2)N(C)C(=O)N(c2cc(NC(=O)c4cccc(C(F)(F)F)c4)ccc2C)C3)n(C)n1 | 293 | 278 | 277 | 341 | 362 | 357 | 399 | 374 | 381

Row | SMILES | AUC of viability dose-response curve ([1]; HPLM + 10% dialyzed FBS) | AUC of viability dose-response curve ([1]; RPMI 5 mM glucose + 10% FBS) | AUC of viability dose-response curve [1, 4] | AUC of viability dose-response curve ([2]; HPLM + 10% dialyzed FBS) | AUC of viability dose-response curve ([2]; RPMI 5 mM glucose + 10% FBS) | AUC of viability dose-response curve [2, 4] | AUC of viability dose-response curve ([3]; HPLM + 10% dialyzed FBS) | AUC of viability dose-response curve ([3]; RPMI 5 mM glucose + 10% FBS) | AUC of viability dose-response curve [3, 4]
23 | CNc1nc(-c2ccc3c(N)n[nH]c3c2)cc(N2C[C@@H](C(=O)NC3CCCCC3)CC[C@H]2C)n1 |  |  |  | 350 | 359 | 364 | 395 | 319 | 336
24 | C=CC(=O)Nc1cccc(Sc2nc(Nc3ccc(N4CCN(C)CC4)cc3)ncc2Cl)c1 |  |  |  | 454 | 455 | 456 |  |  | 
25 | C=CC(=O)Nc1cc2c(Nc3ccc(F)c(Cl)c3)ncnc2cc1C#CC(C)(C)N1CCN(C)CC1 | 360 | 357 | 363 | 382 | 395 | 387 | 395 | 395 | 383
26 | Cc1ccc(C(=O)Nc2cccc(C(F)(F)F)c2)cc1Nc1nc(-c2cccnc2)nc2c1cnn2C | 362 | 411 | 407 | 392 | 396 | 409 | 421 | 393 | 416
27 | CC1(C)CC\C2=C(/O1)C3=C(C=CC=C3)C(=O)C2=O | 437 | 436 | 401 | 449 | 446 | 451 | 449 | 447 | 450
28 | CCC(CCCC)COC(=O)C(\C#N)=C(\c1ccccc1)c2ccccc2 (configuration not stated) | 438 | 425 | 449 | 465 | 439 | 431 | 463 | 469 | 460
29 | CO[C@@H](C(=O)N1Cc2[nH]nc(NC(=O)c3ccc(N4CCN(C)CC4)cc3)c2C1)c1ccccc1 | 277 | 247 | 248 | 352 | 319 | 319 | 268 | 260 | 300
30 | CO[C@H]1CCC(O[C@H]2C[C@H]([C@]3(C)CC[C@]4(C[C@H](O)[C@@H](C)[C@@H]([C@@H](C)/C=C(\C)C(=O)[C@H](C)C[C@H](C)C(=O)[O-])O4)O3)O[C@]3(O[C@@H]([C@H]4O[C@@](O)(CO)[C@H](C)C[C@@H]4C)C[C@@H]3C)[C@@H]2C)O[C@@H]1C (some centres not stated) | 368 | 352 | 344 | 405 | 449 | 415 | 353 | 366 | 376
31 | C/C1=C2/[N]3[Co+]456([OH])<-[N]7=C1[C@@H](CCC(N)=O)C(C)(C)/C7=C/C1=[N]->4C(=C(/C)C4=[N]->5[C@@](C)([C@H]3[C@H](CC(N)=O)[C@@]2(C)CCC(=O)NC[C@@H](C)OP(=O)([O-])O[C@H]2[C@@H](O)[C@@H](n3c[n]->6c5cc(C)c(C)cc53)O[C@@H]2CO)[C@@](C)(CC(N)=O)[C@@H]4CCC(N)=O)/[C@@](C)(CC(N)=O)[C@@H]1CCC(N)=O | 433 | 414 | 460 | 434 | 426 | 443 |  |  | 
32 | O=C1NC(=O)/C(=C/c2ccc3nccnc3c2)S1 | 441 | 441 | 428 | 457 | 444 | 439 | 464 | 443 | 453
33 | C[C@]1(O)CC(C1)C2=NC(=C3[N]2C=CN=C3N)C4=CC5=C(C=C4)C=CC(=N5)C6=CC=CC=C6 (configuration not stated) |  |  |  | 321 | 319 | 301 | 396 | 358 | 366
34 | CCc1ccc(OCc2ccccc2C(=O)Nc2ccc3nc(C)cc(N)c3c2)cc1 | 377 | 416 | 417 | 368 | 409 | 407 | 409 | 423 | 426
35 | O=C(O)c1ccc(O)c2ncc(N3CCOCC3)cc12 | 453 | 424 | 393 | 447 | 417 | 454 | 452 | 431 | 435
36 | CCN(CC)CCNC(=O)c1c(C)[nH]c(/C=C2\C(=O)Nc3ccc(F)cc32)c1C |  |  |  | 257 | 265 | 271 | 248 | 266 | 257
37 | CCNC(=O)Nc1ccc(Oc2ncnc(N)c2/C=N/OC)cc1Cl |  |  |  | 460 | 459 | 441 | 477 | 458 | 471
38 | CN(C)C/C=C/C(=O)Nc1ccc(C(=O)Nc2cccc(Nc3ncc(Cl)c(-c4c[nH]c5ccccc45)n3)c2)cc1 |  |  |  | 248 | 248 | 235 | 240 | 234 | 247
39 | c1cc(-c2cnn3cc(-c4ccc(OCCN5CCCCC5)cc4)cnc23)ccn1 |  |  |  | 388 | 397 | 394 | 416 | 395 | 406
40 | CNC(=O)c1ccc2c(c1)NC(=O)/C2=C(\Nc1cccc(CN(C)C)c1)c1ccccc1 | 318 | 303 | 302 | 400 | 399 | 380 |  |  | 
41 | CO[C@H]1/C=C/O[C@@]2(C)Oc3c(C)c(O)c4c(c3C2=O)C2=NC3(CCN(CC(C)C)CC3)NC2=C(NC(=O)/C(C)=C/C=C/[C@H](C)[C@H](O)[C@@H](C)[C@@H](O)[C@@H](C)[C@H](OC(C)=O)[C@@H]1C)C4=O |  |  |  | 471 | 476 | 466 | 469 | 466 | 471
42 | CCCOc1ccc(C(=O)OCCN(CC)CC)cc1N |  |  |  | 465 | 468 | 464 | 453 | 448 | 446
43 | Cc1cn2cc(C(=O)N(C)CCO)cc(N[C@@H]3CCOc4cccc(C)c43)c2n1 |  |  |  | 462 | 422 | 443 | 465 | 470 | 469
